Target: Granzyme B (Homo sapiens, UniProt P10144)
Test: Biochemical Assay: Buffer pH7.4: Prepare 1 (M) KH2PO4 and 1 (M) K2HPO4. Titrate 1(M) K2HPO4 with 1 (M) KH2PO4 to obtain pH 7.40. Dilute this buffer 10 fold in Water (30 ml buffer+270 ml of water) to obtain 100 mM phosphate buffer. Adjust pH to 7.40±0.02 using 5(N) HCl or 5(N) NaOH. NADPH Regeneration System (NRS): Prepare a solution containing 13 mM NADP, 33 mM Glucose-6-phosphate, 33 mM MgCl2and 4 U/ml Glucose-6-phosphate dehydrogenase in buffer. Liver Microsome (LM) suspension: Thaw LM vial on ice, then mix 1.0 ml LM (20 mg/ml) with 19 ml buffer [final LM Conc: 1 mg/ml] LM+NRS suspension: Mix 5.0 ml NRS with 20 ml LM suspension [final LM Conc: 0.8 mg/ml] System suitability standard: a synthesized compound having Mol wt 686.2 used as System suitability standard. Dissolve this compound in ice-cold acetonitrile to obtain concentration of 0.1 μg/ml and store at 4° C. Compound Dilution: Compound Stock: 10 mM in DMSO Sub stock (100 μM): 4 μl of 10 mM Compound Stock+398 μl Acetonitrile. Working plate (2 μM): 10 μl of 100 μM Sub stock+490 μl buffer Assay Procedure Incubate all plastic materials including tips at 37° C. overnight. Incubate LM suspension and NRS at 37° C. for 15 min before use. Add 40 μl buffer to the wells of blank plate. Add 40 μl compound (from working plate) to 0, 5, 10, 20, 30 and 60 min plates. Initiate reaction by adding 40 μl of LM+NRS suspension in each plate. […]

Granzyme B, sequence (P10144 whole entry): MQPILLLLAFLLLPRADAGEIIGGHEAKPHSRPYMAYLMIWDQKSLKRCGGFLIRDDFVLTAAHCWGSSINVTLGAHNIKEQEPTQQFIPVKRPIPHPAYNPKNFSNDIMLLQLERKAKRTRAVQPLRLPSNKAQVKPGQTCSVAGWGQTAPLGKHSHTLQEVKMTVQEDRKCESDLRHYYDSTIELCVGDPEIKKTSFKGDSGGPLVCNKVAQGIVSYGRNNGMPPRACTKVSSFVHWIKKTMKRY

- IC50: > 5 µM
Structure (SMILES): O=C(Cc1ccccc1)NCC(=O)N[C@H]1CCc2cccc3c2N(C1=O)[C@H](C(=O)NCc1c[nH]nn1)C3

Reference: ChEMBL document CHEMBL5729744, “Granzyme B directed imaging and therapy” (2023)
